Tests used:
[1] = target: T1, JAK1 (JH2domain-psudokinase) (Homo sapiens, UniProt P23458); test: scanMAX Kinase analysis panel (DiscoverX); format: binding; settings: 1 μM in DMSO
T1 construct: JAK1 (JH2domain-pseudokinase); purchased DiscoverX scanMAX Kinase analysis panel
Excerpt: (§1) [(Example Compound−Positive Control)/(Negative Control−Positive Control)×100]

ABL1-nonphosphorylated = target: T2, ABL1-nonphosphorylated (Homo sapiens, UniProt P00519); test: scanMAX Kinase analysis panel (DiscoverX); format: binding; settings: 1 μM in DMSO
T2 construct: purchased DiscoverX
Excerpt: as §1

CHEK2 = target: T3, CHEK2 (Homo sapiens, UniProt O96017); test: scanMAX Kinase analysis panel (DiscoverX); format: binding; settings: 1 μM in DMSO
T3 construct: purchased DiscoverX
Excerpt: as §1

ALK (L1196M) = target: T4, ALK (L1196M) (Homo sapiens, UniProt Q9UM73, L1196M); test: scanMAX Kinase analysis panel (DiscoverX); format: binding; settings: 1 μM in DMSO
T4 construct: purchased DiscoverX
Excerpt: as §1

GAK = target: T5, GAK (Homo sapiens, UniProt O14976); test: scanMAX Kinase analysis panel (DiscoverX); format: binding; settings: 1 μM in DMSO
T5 construct: purchased DiscoverX
Excerpt: as §1

PHKG2 = target: T6, PHKG2 (Homo sapiens, UniProt P15735); test: scanMAX Kinase analysis panel (DiscoverX); format: binding; settings: 1 μM in DMSO
T6 construct: purchased DiscoverX
Excerpt: as §1

INSR = target: T7, INSR (Homo sapiens, UniProt P06213); test: scanMAX Kinase analysis panel (DiscoverX); format: binding; settings: 1 μM in DMSO
T7 construct: purchased DiscoverX scanMAX Kinase analysis panel
Excerpt: as §1

ALK = target: T8, ALK (Homo sapiens, UniProt Q9UM73); test: scanMAX Kinase analysis panel (DiscoverX); format: binding; settings: 1 μM in DMSO
T8 construct: purchased DiscoverX
Excerpt: as §1

JNK3 = target: T9, JNK3 (Homo sapiens, UniProt P53779); test: scanMAX Kinase analysis panel (DiscoverX); format: binding; settings: 1 μM in DMSO
T9 construct: purchased DiscoverX scanMAX Kinase analysis panel
T9 sequence (P53779 whole entry): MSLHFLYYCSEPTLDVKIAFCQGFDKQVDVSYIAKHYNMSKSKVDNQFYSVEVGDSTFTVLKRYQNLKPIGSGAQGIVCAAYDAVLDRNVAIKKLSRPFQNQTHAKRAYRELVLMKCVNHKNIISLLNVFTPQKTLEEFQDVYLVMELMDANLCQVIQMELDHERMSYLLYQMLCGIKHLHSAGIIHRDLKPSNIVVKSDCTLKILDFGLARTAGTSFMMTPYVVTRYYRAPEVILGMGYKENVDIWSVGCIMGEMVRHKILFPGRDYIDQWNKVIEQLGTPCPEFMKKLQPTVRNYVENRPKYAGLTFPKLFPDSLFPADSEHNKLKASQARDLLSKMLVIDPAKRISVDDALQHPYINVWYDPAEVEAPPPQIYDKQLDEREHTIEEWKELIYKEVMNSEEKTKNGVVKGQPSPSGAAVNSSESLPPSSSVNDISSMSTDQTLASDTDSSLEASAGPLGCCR
Excerpt: as §1

CAMKK2 = target: T10, CAMKK2 (Homo sapiens, UniProt Q96RR4); test: scanMAX Kinase analysis panel (DiscoverX); format: binding; settings: 1 μM in DMSO
T10 construct: purchased DiscoverX
T10 sequence (Q96RR4 whole entry): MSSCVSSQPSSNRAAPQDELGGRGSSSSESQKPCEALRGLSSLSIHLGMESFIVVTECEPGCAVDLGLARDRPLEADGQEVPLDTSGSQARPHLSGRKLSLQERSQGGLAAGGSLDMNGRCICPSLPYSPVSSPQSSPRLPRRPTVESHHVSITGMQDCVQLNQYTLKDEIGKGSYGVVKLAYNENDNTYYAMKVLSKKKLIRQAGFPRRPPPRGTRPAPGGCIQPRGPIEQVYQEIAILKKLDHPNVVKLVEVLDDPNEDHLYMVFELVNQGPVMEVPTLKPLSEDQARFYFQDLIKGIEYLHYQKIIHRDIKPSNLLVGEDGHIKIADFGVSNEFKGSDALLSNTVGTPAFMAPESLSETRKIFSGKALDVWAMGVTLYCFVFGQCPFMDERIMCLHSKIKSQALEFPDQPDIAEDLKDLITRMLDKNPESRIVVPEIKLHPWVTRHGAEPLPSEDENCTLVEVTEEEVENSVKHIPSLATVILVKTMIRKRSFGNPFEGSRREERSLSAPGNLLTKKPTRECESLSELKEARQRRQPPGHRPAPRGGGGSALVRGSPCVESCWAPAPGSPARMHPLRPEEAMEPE
Excerpt: as §1

MYLK = target: T11, MYLK (Homo sapiens, UniProt Q15746); test: scanMAX Kinase analysis panel (DiscoverX); format: binding; settings: 1 μM in DMSO
T11 construct: purchased DiscoverX
T11 sequence (Q15746 whole entry): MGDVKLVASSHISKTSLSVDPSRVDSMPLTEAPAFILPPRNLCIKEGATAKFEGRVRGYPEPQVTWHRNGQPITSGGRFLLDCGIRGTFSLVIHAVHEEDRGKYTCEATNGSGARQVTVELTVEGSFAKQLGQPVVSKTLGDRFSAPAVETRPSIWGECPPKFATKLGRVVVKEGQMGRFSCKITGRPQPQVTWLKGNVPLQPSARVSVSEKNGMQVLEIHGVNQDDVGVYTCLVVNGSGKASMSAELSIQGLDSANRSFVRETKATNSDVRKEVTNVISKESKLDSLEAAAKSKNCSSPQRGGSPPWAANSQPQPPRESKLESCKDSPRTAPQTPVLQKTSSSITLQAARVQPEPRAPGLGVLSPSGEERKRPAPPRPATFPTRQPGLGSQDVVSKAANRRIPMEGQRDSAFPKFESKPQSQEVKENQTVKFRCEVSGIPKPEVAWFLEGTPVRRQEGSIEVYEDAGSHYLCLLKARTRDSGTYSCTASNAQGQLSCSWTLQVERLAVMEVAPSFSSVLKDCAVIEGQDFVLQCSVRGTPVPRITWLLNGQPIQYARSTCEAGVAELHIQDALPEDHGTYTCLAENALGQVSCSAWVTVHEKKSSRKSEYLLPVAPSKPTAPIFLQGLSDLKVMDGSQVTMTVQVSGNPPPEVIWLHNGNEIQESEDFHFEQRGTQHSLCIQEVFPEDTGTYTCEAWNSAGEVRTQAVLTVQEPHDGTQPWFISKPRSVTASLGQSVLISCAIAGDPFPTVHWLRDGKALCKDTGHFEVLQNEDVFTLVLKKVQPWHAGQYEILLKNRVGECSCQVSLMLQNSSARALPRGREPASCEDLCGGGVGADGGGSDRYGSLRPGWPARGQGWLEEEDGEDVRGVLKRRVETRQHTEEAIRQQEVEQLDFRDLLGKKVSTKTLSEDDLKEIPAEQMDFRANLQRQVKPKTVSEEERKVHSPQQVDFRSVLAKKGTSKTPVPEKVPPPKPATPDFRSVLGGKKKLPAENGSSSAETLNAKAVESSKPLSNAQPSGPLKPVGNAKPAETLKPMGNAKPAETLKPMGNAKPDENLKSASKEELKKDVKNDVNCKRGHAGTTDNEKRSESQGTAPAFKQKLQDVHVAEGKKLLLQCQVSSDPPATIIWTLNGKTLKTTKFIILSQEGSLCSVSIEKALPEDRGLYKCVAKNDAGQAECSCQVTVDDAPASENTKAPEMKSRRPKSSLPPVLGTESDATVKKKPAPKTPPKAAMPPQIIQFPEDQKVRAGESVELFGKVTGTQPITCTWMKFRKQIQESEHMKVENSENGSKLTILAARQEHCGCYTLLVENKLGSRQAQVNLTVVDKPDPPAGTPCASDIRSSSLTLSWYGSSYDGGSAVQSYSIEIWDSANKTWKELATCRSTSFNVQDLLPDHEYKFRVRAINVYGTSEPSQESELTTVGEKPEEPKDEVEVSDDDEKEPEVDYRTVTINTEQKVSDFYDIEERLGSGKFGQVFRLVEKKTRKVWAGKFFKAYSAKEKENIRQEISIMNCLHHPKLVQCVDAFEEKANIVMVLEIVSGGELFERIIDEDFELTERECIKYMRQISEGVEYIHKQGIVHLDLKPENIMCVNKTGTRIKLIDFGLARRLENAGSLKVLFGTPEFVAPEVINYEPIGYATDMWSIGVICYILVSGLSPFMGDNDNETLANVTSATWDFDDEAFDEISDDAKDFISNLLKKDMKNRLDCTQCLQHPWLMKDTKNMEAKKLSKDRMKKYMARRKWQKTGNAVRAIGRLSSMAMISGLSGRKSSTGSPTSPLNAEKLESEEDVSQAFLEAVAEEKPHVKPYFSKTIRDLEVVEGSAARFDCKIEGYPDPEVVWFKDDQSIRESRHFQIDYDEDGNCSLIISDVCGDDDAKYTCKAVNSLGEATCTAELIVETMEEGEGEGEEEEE
Excerpt: as §1

PLK4 = target: T12, PLK4 (Homo sapiens, UniProt O00444); test: scanMAX Kinase analysis panel (DiscoverX); format: binding; settings: 1 μM in DMSO
T12 construct: purchased DiscoverX scanMAX Kinase analysis panel
T12 sequence (O00444 whole entry): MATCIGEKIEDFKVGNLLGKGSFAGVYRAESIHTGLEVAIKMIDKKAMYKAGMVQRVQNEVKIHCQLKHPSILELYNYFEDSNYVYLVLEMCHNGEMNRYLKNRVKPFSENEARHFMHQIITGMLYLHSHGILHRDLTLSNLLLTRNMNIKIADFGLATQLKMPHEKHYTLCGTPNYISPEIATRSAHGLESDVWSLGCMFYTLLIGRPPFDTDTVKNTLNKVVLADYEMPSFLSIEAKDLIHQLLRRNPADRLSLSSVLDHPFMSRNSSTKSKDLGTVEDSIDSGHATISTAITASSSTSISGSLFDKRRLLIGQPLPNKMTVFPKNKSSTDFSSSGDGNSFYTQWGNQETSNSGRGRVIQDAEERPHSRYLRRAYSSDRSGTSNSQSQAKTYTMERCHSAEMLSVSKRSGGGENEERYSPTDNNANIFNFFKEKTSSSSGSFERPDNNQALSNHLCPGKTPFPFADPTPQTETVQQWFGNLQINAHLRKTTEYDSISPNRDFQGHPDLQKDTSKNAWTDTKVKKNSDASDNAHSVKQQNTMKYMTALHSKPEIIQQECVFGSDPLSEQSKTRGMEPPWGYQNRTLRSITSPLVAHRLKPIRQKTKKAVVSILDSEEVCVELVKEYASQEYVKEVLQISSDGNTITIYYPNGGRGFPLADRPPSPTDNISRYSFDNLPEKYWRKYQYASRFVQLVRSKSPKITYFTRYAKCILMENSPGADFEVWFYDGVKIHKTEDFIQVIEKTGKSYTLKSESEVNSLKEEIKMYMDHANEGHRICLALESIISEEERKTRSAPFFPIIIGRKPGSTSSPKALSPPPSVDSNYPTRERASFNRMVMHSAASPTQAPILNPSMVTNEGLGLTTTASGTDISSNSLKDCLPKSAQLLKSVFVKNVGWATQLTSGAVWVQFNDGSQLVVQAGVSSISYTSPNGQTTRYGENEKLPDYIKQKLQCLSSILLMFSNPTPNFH
Excerpt: as §1

CAMK2D = target: T13, CAMK2D (Homo sapiens, UniProt Q13557); test: scanMAX Kinase analysis panel (DiscoverX); format: binding; settings: 1 μM in DMSO
T13 construct: purchased DiscoverX
Excerpt: as §1

MAPKAPK2 = target: T14, MAPKAPK2 (Homo sapiens, UniProt P49137); test: scanMAX Kinase analysis panel (DiscoverX); format: binding; settings: 1 μM in DMSO
T14 construct: purchased DiscoverX scanMAX Kinase analysis panel
Excerpt: as §1

cSNK1D = target: T15, cSNK1D (Homo sapiens, UniProt P48730); test: scanMAX Kinase analysis panel (DiscoverX); format: binding
T15 construct: purchased DiscoverX
Excerpt: as §1

CSNK1A1 = target: T16, CSNK1A1 (Homo sapiens, UniProt P48729); test: scanMAX Kinase analysis panel (DiscoverX); format: binding; settings: 1 μM in DMSO
T16 construct: purchased DiscoverX
Excerpt: as §1

STK33 = target: T17, STK33 (Homo sapiens, UniProt Q9BYT3); test: scanMAX Kinase analysis panel (DiscoverX); format: binding; settings: 1 μM in DMSO
T17 construct: purchased DiscoverX
Excerpt: as §1

ERK5 = target: T18, ERK5 (Homo sapiens, UniProt Q13164); test: scanMAX Kinase analysis panel (DiscoverX); format: binding; settings: 1 μM in DMSO
T18 construct: purchased DiscoverX scanMAX Kinase analysis panel
Excerpt: as §1

LTK = target: T19, LTK (Homo sapiens, UniProt P29376); test: scanMAX Kinase analysis panel (DiscoverX); format: binding; settings: 1 μM in DMSO
T19 construct: purchased DiscoverX
T19 sequence (P29376 17-864): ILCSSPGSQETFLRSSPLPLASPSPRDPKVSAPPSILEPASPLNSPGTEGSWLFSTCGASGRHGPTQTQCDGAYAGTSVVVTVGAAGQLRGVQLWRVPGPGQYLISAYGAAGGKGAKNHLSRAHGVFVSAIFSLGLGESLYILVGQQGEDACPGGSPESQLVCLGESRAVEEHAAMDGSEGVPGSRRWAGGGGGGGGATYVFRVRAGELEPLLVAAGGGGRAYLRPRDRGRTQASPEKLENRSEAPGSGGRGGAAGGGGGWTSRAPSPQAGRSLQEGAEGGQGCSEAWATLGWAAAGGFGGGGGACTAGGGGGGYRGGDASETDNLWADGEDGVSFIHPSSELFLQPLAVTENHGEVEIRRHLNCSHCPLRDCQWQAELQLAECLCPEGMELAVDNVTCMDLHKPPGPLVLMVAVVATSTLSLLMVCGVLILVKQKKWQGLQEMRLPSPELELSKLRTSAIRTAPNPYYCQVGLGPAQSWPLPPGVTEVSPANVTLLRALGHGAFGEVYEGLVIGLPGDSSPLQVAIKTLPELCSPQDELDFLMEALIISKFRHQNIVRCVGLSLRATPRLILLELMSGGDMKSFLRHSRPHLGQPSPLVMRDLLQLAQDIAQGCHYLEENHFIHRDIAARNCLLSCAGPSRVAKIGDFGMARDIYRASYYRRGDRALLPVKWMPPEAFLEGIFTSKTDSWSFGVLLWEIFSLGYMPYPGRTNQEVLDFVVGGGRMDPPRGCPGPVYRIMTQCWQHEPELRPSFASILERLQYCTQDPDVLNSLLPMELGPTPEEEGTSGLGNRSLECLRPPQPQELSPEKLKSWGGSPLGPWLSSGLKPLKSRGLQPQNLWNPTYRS
Excerpt: as §1

ALK(C1156Y) = target: T20, ALK(C1156Y) (Homo sapiens, UniProt Q9UM73, C1156Y); test: scanMAX Kinase analysis panel (DiscoverX); format: binding; settings: 1 μM in DMSO
T20 construct: purchased DiscoverX
Excerpt: as §1

LRRK2 = target: T21, LRRK2 (Homo sapiens, UniProt Q5S007); test: scanMAX Kinase analysis panel (DiscoverX); format: binding; settings: 1 μM in DMSO
T21 construct: purchased DiscoverX scanMAX Kinase analysis panel
Excerpt: as §1

EMT6 breast cancer = test: Anticancer effect in EMT6 breast cancer transplant mouse model; format: in vivo, female C57BL/6 mouse; settings: singular treatment, 45, 60, 75 mg/kg po BID, FIG. 6a
Description: The 3LL cells were cultured in Hams F10:L15=3:7 culture medium, the EMT-6 cells were cultured in Waymouth's MB 752/1 culture medium, and the MC38 cells were cultured in a DMEM culture medium with 10% FBS and 1% penicillin streptomycin, at 37° C. in a 5% CO2 humidified cell culture incubator.
All animal tests were carried out through WuXi AppTec.

[2] = system: Ba/F3 EGFR L858R/T790M/C797S; test: EGFR expression after treatment, western blot; format: cell-based; settings: 0.5, 1.2 and 5 μM, 4 or 24 hours, FIG. 7
Description: (§2) For the Ba/F3 EGFR L858R/T790M/C797S cell line, Ba/F3 naive cells purchased from DSMZ were transfected with EGFR L858R/T790M/C797S […] DNA using lipofectamine, and a cell line selected using 1 μg/ml puromycin for 2 weeks was used. Here, the culture medium used was RPMI-1640 with 10% FBS and 1% penicillin streptomycin. The NCI-H2228 and CAL-27 cell lines were purchased from ATCC, and for culturing RPMI-1640 with 10% FBS and 1% penicillin streptomycin was used for NCI-H2228, while for CAL-27 DMEM with 10% FBS and 1% penicillin streptomycin was used.
(§3) As needed, culturing was performed for 1 hour with Cyclohexamine at 30 μg/mL concentration, followed by 15 minutes EGF treatment at a concentration of 100 ng/mL. For the phosphoarray experiment, DYRK1a siRNA was reacted with HEK293T cells for 48 hours at 30 nM concentration, confirming inhibition of DYRK1a expression in the cells. These were used as the control for the main experiment.

NCI-H2228 = test: EGFR expression and signalling after treatment, western blot; format: cell-based; settings: FIG. 7
Description: as §2, §3

T1 sequence (P23458 583-855 limits assumed): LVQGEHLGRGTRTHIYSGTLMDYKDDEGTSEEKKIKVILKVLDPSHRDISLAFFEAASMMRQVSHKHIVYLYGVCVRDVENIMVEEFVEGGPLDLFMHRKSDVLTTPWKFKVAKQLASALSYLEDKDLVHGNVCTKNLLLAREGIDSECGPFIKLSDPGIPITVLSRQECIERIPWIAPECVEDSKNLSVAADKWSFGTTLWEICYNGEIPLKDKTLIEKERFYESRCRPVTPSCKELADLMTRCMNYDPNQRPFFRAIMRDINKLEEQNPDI

**Q.** `CCNc1cc(Nc2ccc(C(=O)N3CCC(N4CCOCC4)CC3)cc2OC)nc2[nH]cc(C(F)(F)F)c12` [Compound 1, (4-((4-(ethylamino)-3-(trifluoromethyl)-1H-pyrrolo[2,3-b]pyridine-6-yl)amino)-3-methoxyphenyl) (4-morpholinopiperidine-1-yl)methanone] was tested. Which inhibition at 1 µM [1] did it give?
**A.** 40 to 59%

**Q.** And the inhibition at 1 µM (ABL1-nonphosphorylated)?
**A.** 40 to 59%

**Q.** What about the inhibition at 1 µM (CHEK2) of the same compound?
**A.** 40 to 59%

**Q.** What about the inhibition at 1 µM (ALK (L1196M)) of the same compound?
**A.** ≥ 59%

**Q.** And the inhibition at 1 µM (GAK)?
**A.** ≥ 59%

**Q.** What about the inhibition at 1 µM (PHKG2) of the same compound?
**A.** ≥ 59%

**Q.** And the inhibition at 1 µM (INSR)?
**A.** 40 to 59%

**Q.** What about the inhibition at 1 µM (ALK) of the same compound?
**A.** ≥ 59%

**Q.** And the inhibition at 1 µM (JNK3)?
**A.** 40 to 59%

**Q.** What about the inhibition at 1 µM (CAMKK2) of the same compound?
**A.** 40 to 59%

**Q.** What about the inhibition at 1 µM (MYLK) of the same compound?
**A.** ≥ 59%

**Q.** And the inhibition at 1 µM (PLK4)?
**A.** 40 to 59%

**Q.** And the inhibition at 1 µM (CAMK2D)?
**A.** 40 to 59%

**Q.** And the inhibition at 1 µM (MAPKAPK2)?
**A.** 40 to 59%

**Q.** And the inhibition at 1 µM (cSNK1D)?
**A.** ≥ 59%

**Q.** And the inhibition at 1 µM (CSNK1A1)?
**A.** 40 to 59%

**Q.** And the inhibition at 1 µM (STK33)?
**A.** ≥ 59%

**Q.** What about the inhibition at 1 µM (ERK5) of the same compound?
**A.** 40 to 59%

**Q.** And the inhibition at 1 µM (LTK)?
**A.** ≥ 59%

**Q.** What about the inhibition at 1 µM (ALK(C1156Y)) of the same compound?
**A.** ≥ 59%

**Q.** What about the inhibition at 1 µM (LRRK2) of the same compound?
**A.** 40 to 59%

**Q.** What about the tumor suppression effect (EMT6 breast cancer) of the same compound?
**A.** insignificant tumor suppression effect

**Q.** What about the EGFR expression [2] of the same compound?
**A.** reduced EGFR expression

**Q.** What about the EGFR expression (NCI-H2228; 0.5, 1.2 and 5 μM, 4 or 24 hours) of the same compound?
**A.** reduced EGFR expression

**Q.** And the “p-AKT (S473)” value (NCI-H2228)?
**A.** reduction

**Q.** What about the “p-Erk 1/2 (T202/Y204)” value (NCI-H2228) of the same compound?
**A.** reduction

— patent US20220218715A1, “NOVEL USE OF PYRROLO-PYRIDINE DERIVATIVE COMPOUND FOR PREVENTION AND/OR TREATMENT OF CANCER” (VORONOI CO., LTD., priority 2019, published 2022)
